Measurements: paper PMC6615261, “Repurposing Azithromycin and Rifampicin Against Gram-Negative Pathogens by Combination With Peptidomimetics” (Frontiers in Cellular and Infection Microbiology, 2019)
Like-named read-outs stand apart in the source and are kept apart here.

What was measured:
MDR E. coli ST131 = assay: Screening of peptidomimetic-antibiotic combinations (growth / growth inhibition); assay type: cell-based, Escherichia coli; design: key to Growth in combination with RIF / Growth in combination with AZM: Growth (+); growth inhibition (–)
K. pneumoniae ST258 [1] = assay: as above; assay type: cell-based, Klebsiella pneumoniae; design: key to Growth in combination with RIF / Growth in combination with AZM: Growth (+); growth inhibition (–)
K. pneumoniae ST258 [2] = assay: MIC by broth microdilution; assay type: cell-based, Klebsiella pneumoniae
Method: (§1) Minimal inhibitory concentrations (MICs) of peptidomimetics, antibiotics and their combinations were determined by broth microdilution according to the Clinical Laboratory Standards Institute performance standards (Clinical and Laboratory Standards Institute, [2013]). […] Since rifampicin and azithromycin mainly are used to treat infections with Gram-positive pathogens only CLSI clinical breakpoints were available for such bacteria. […] Potentiation of additional antibiotics by peptidomimetics was determined by using commercial 96-well plates containing varied concentrations of standard antibiotics (COMPAN1F; Trek Diagnostic Systems Inc.). The peptidomimetics were added immediately prior to inoculation with pathogen, and then MICs were determined as above. The MICs of peptidomimetic/antibiotic combinations were determined according to the method above, and the concentration ratios were selected based upon checkerboard results with 2:1 and 1:4 ratio of peptidomimetic with rifampicin or azithromycin, respectively. Minimal bactericidal concentrations (MBCs) were determined by using growth-curve assay plates. MIC plates were prepared as above, and then the plates were incubated at 37°C with continuous shaking. Growth was recorded at 10 min intervals as optical density (OD) at 600 nm during 24 h. At 24 h, for wells without growth, a sample was diluted 10-fold in sterile saline (0.9% sodium chloride) and plated onto MHA, following CLSI guidelines (Clinical and Laboratory Standards Institute, [1999]).

E. coli ST131 [3] = system: E. coli ST131
Method in brief: (§2)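 Two-dimensional checkerboard broth microdilution in MHB II, with twofold dilutions of peptidomimetic and antibiotic on crossed axes and 18–20 h incubation per CLSI. FICI = MICA(A+B)/MICA(alone) + MICB(A+B)/MICB(alone); ≤0.5 is interpreted as synergy.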

K. pneumoniae ST258 [4] = system: K. pneumoniae ST258
Method in brief: as §2

P. aeruginosa ATCC 27853 = system: P. aeruginosa ATCC 27853
Method in brief: as §2

[5] = system: E. coli clinical isolates and reference strains; assay: MIC of fixed-ratio peptidomimetic 1-antibiotic combinations in clinical isolates and reference strains; assay type: cell-based, Escherichia coli; settings: with rifampicin or azithromycin
Description: (§3) Bacterial strains used in this study comprise MDR clinical isolates of E. coli ST131 (Cerquetti et al., [2010]) and K. pneumoniae ST258 (Jana et al., [2017]), and American type culture collection (ATCC) strains: ATCC 25922 (E. coli), ATCC 13883 (K. pneumoniae), and ATCC 27853 (P. aeruginosa). Additional clinical isolates of E. coli, K. pneumoniae, and P. aeruginosa resistant to β-lactams (including carbapenems and cephalosporins) were provided by Laurent Poirel, Université de Fribourg, Switzerland. The following growth media was routinely used for bacterial culturing: Luria-Burtani (LB), cation-adjusted Mueller-Hinton agar (MHA) and broth (MHB II). All assays were performed in cation-adjusted MHA or MHB II. Antibiotics were purchased from Sigma-Aldrich and the peptidomimetic collection (Table S1) was curated and provided by Henrik Franzyk. […]
(§4) Minimal inhibitory concentrations (MICs) of peptidomimetics, antibiotics and their combinations were determined by broth microdilution according to the Clinical Laboratory Standards Institute performance standards (Clinical and Laboratory Standards Institute, [2013]). […] Potentiation of additional antibiotics by peptidomimetics was determined by using commercial 96-well plates containing varied concentrations of standard antibiotics (COMPAN1F; Trek Diagnostic Systems Inc.). The peptidomimetics were added immediately prior to inoculation with pathogen, and then MICs were determined as above. The MICs of peptidomimetic/antibiotic combinations were determined according to the method above, and the concentration ratios were selected based upon checkerboard results with 2:1 and 1:4 ratio of peptidomimetic with rifampicin or azithromycin, respectively. Minimal bactericidal concentrations (MBCs) were determined by using growth-curve assay plates. […] Growth was recorded at 10 min intervals as optical density (OD) at 600 nm during 24 h. […]

[6] = system: K. pneumoniae clinical isolates and reference strains; assay: as above; assay type: cell-based, Klebsiella pneumoniae; settings: with rifampicin or azithromycin
Description: as §3, with “II.” for “II. Antibiotics were purchased from Sigma-Aldrich and the peptidomimetic collection (Table S1) was curated and provided by Henrik Franzyk.”
(§5) Minimal inhibitory concentrations (MICs) of peptidomimetics, antibiotics and their combinations were determined by broth microdilution according to the Clinical Laboratory Standards Institute performance standards (Clinical and Laboratory Standards Institute, [2013]). […] Potentiation of additional antibiotics by peptidomimetics was determined by using commercial 96-well plates containing varied concentrations of standard antibiotics (COMPAN1F; Trek Diagnostic Systems Inc.). The peptidomimetics were added immediately prior to inoculation with pathogen, and then MICs were determined as above. […] Minimal bactericidal concentrations (MBCs) were determined by using growth-curve assay plates. […]

[7] = system: P. aeruginosa clinical isolates and reference strains; assay: as above; assay type: cell-based, Pseudomonas aeruginosa; settings: with rifampicin or azithromycin
Description: as §3, §4

E. coli ST131 [8] = settings: ST131, 24 h
Method: as §1

K. pneumoniae ST258 [9] = settings: ST258, 24 h
Method: as §1

P. aeruginosa ATTC 27853 = settings: ATTC 27853, 24 h
Method: as §1

[10] = system: isolates of E. coli, K. pneumoniae and P. aeruginosa; assay: Induction of susceptibility in MDR isolates (summary over all three species); assay type: cell-based; settings: peptidomimetic 1 at ≤1 μM; 30 of 36 isolates
Description: as §3, with “II.” for “II. Antibiotics were purchased from Sigma-Aldrich and the peptidomimetic collection (Table S1) was curated and provided by Henrik Franzyk.”
as §5

[11] = 0.5 μM peptidomimetic + 0.5 μg/mL rifampicin
[12] = 0.5 μM peptidomimetic + 1 μg/mL azithromycin
[13] = peptidomimetic 0.5 μM + azithromycin 1 μg/mL
[14] = peptidomimetic 0.5 μM + rifampicin 0.5 μg/mL
[15] = MIC of azithromycin combined with the labelled peptidomimetic
[16] = MIC of rifampicin combined with the labelled peptidomimetic

Q: Which “Screening result with rifampicin” value (MDR E. coli ST131; [11]) does the source give for NCCCC[C@H](NC(=O)CCN(Cc1ccccc1)C(=O)[C@H](CCCCN)NC(=O)CCN(Cc1ccccc1)C(=O)[C@H](CCCCN)NC(=O)CCN(Cc1ccccc1)C(=O)[C@H](CCCCN)NC(=O)CCN(Cc1ccccc1)C(=O)[C@H](CCCCN)NC(=O)CCN(Cc1ccccc1)C(=O)[C@H](CCCCN)NC(=O)CCN(Cc1ccccc1)C(=O)[C@H](CCCCN)NC(=O)CCN(Cc1ccccc1)C(=O)[C@@H](N)CCCCN)C(=O)N(CCC(N)=O)Cc1ccccc1 [Peptidomimetic 1, H-(Lys-βNPhe)8-NH2] here?
A: inhibit growth

Q: What about the “Screening result with azithromycin” value (MDR E. coli ST131; [12]) of the same compound?
A: prevented growth

Q: And the “Growth in combination with AZM” value (MDR E. coli ST131; [13])?
A: –

Q: What about the “Growth in combination with RIF” value (MDR E. coli ST131; [14]) of the same compound?
A: –

Q: And the “Screening result with rifampicin” value (K. pneumoniae ST258 [1]; [11])?
A: inhibit growth

Q: What about the “Screening result with azithromycin” value (K. pneumoniae ST258 [1]; [12]) of the same compound?
A: prevented growth

Q: And the “Growth in combination with AZM” value (K. pneumoniae ST258 [1]; [13])?
A: –

Q: What about the “Growth in combination with RIF” value (K. pneumoniae ST258 [1]; [14]) of the same compound?
A: –

Q: What about the “Selectivity Index (SI) K. pneumoniae ST258” value (K. pneumoniae ST258 [2]; average of EC50 (HepG2, NIH 3T3) divided by MIC) of the same compound?
A: (10)

Q: And the “MIC K. pneumoniae ST258” value (K. pneumoniae ST258 [2]; peptidomimetic alone)?
A: 16 µM

Q: What about the “Antibiotic MIC in combination (AZM)” value (E. coli ST131 [3]; [15]) of the same compound?
A: 1 µg/mL

Q: What about the “Antibiotic MIC in combination (RIF)” value (E. coli ST131 [3]; [16]) of the same compound?
A: 0.06 µg/mL

Q: What about the “Peptidomimetic MIC alone” value (E. coli ST131 [3]; checkerboard) of the same compound?
A: 2 µM

Q: And the “Peptidomimetic MIC in combination” value (E. coli ST131 [3]; combined with AZM)?
A: 0.25 µM

Q: And the “Peptidomimetic MIC in combination” value (E. coli ST131 [3]; combined with RIF)?
A: 0.5 µM

Q: And the “Antibiotic MIC in combination (AZM)” value (K. pneumoniae ST258 [4]; [15])?
A: 4 µg/mL

Q: What about the “Antibiotic MIC in combination (RIF)” value (K. pneumoniae ST258 [4]; [16]) of the same compound?
A: 0.25 µg/mL

Q: What about the “Peptidomimetic MIC alone” value (K. pneumoniae ST258 [4]; checkerboard) of the same compound?
A: 16 µM

Q: What about the “Peptidomimetic MIC in combination” value (K. pneumoniae ST258 [4]; combined with AZM) of the same compound?
A: 0.5 µM

Q: And the “Peptidomimetic MIC in combination” value (K. pneumoniae ST258 [4]; combined with RIF)?
A: 0.5 µM

Q: What about the “Antibiotic MIC in combination (RIF)” value (P. aeruginosa ATCC 27853; P. aeruginosa ATCC 27853, MIC of rifampicin combined with the labelled peptidomimetic) of the same compound?
A: 1 µg/mL

Q: What about the “Peptidomimetic MIC alone” value (P. aeruginosa ATCC 27853; P. aeruginosa ATCC 27853, checkerboard) of the same compound?
A: 1 µM

Q: What about the “Peptidomimetic MIC in combination” value (P. aeruginosa ATCC 27853; P. aeruginosa ATCC 27853, combined with AZM) of the same compound?
A: 0.25 µM

Q: What about the “Peptidomimetic MIC in combination” value (P. aeruginosa ATCC 27853; P. aeruginosa ATCC 27853, combined with RIF) of the same compound?
A: 0.25 µM

Q: And the “Reduction of the MIC of azithromycin” value (P. aeruginosa ATCC 27853; P. aeruginosa, sub-MIC concentrations of peptidomimetic)?
A: 32- to 512 fold

Q: What about the “Peptidomimetic concentration in combination, most E. coli isolates” value [5] of the same compound?
A: 0.5 to 1 µM

Q: What about the “Peptidomimetic concentration required to induce susceptibility, three K. pneumoniae isolates” value [6] of the same compound?
A: 2 to 8 µM

Q: What about the “Peptidomimetic concentration typically required, P. aeruginosa isolates” value [7] of the same compound?
A: 1 to 8 µM

Q: What about the “MBC (peptidomimetic alone)” value (E. coli ST131 [8]) of the same compound?
A: 1 µM

Q: And the “MIC (peptidomimetic alone)” value (E. coli ST131 [8])?
A: 1 µM

Q: What about the “MBC (peptidomimetic alone)” value (K. pneumoniae ST258 [9]) of the same compound?
A: 16 to 32 µM

Q: And the “MIC (peptidomimetic alone)” value (K. pneumoniae ST258 [9])?
A: 8 µM

Q: And the “MBC (peptidomimetic alone)” value (P. aeruginosa ATTC 27853)?
A: 2 µM

Q: And the “MIC (peptidomimetic alone)” value (P. aeruginosa ATTC 27853)?
A: 1 µM

Q: And the “Isolates in which susceptibility to rifampicin and azithromycin was induced” value [10]?
A: 83%
